Where two headings read alike, the source gives them in different places.
Legend:
[1] = tested on: Ab2, monoclonal antibody receptor cross reactive to f-PSA and PSA-ACT; type: binding
[2] = type: binding; settings: BT 5 ng/ml; PSA 100 ng/ml; BSA 10 microgram/ml; phosphate buffer pH 6.7
[3] = type: binding; settings: CT 5 ng/ml; PSA 100 ng/ml; BSA 10 microgram/ml; phosphate buffer pH 6.7
[4] = tested on: monoclonal antibodies for PSA (Ab1); type: binding
[5] = f-PSA 1700 pg/ml, p-type silicon nanowire

Substance	Conductance Change NW2-Ab2 ([1]; PSA-ACT 0.32 pg/ml) [nS]	Conductance Change NW2-Ab2 ([1]; PSA-ACT 3.2 pg/ml) [nS]	Conductance Change NW2-Ab2 ([1]; PSA-ACT 320 pg/ml) [nS]	Conductance Change NW2-Ab2 ([1]; PSA-ACT 3200 pg/ml) [nS]	conductance response to injection [2]	Conductance Change NW2-Ab2 ([1]; f-PSA 0.085 pg/ml) [nS]	Conductance Change NW2-Ab2 ([1]; f-PSA 0.85 pg/ml) [nS]	Conductance Change NW2-Ab2 ([1]; f-PSA 8.5 pg/ml) [nS]	Conductance Change NW2-Ab2 ([1]; f-PSA 850 pg/ml) [nS]	Conductance Change NW2-Ab2 [1, 5] [nS]	conductance response to injection [3]	Conductance Change NW1-Ab1 ([4]; f-PSA 0.085 pg/ml) [nS]	Conductance Change NW1-Ab1 ([4]; f-PSA 0.85 pg/ml) [nS]	Conductance Change NW1-Ab1 ([4]; f-PSA 8.5 pg/ml) [nS]	Conductance Change NW1-Ab1 ([4]; f-PSA 850 pg/ml) [nS]	Conductance Change NW1-Ab1 [4, 5] [nS]
PSA-ACT: PSA-alpha-1-antichymotrypsin complex, cancer marker	19	67	124	143	–	–	–	–	–	–	–	–	–	–	–	–
f-PSA: free prostate specific antigen, cancer marker protein, purchased from Calbiochem	–	–	–	–	no response was observed	10	50	81	132	154	no response was observed	15	45	98	185	192

From patent US8232584B2 (priority 2005, dated 2012)
